Bridge positions count the residues as written; N and C are the ends. Peptide text beside a SMILES is read from it.
What was measured:
[1] = molecular target: T1, Somatostatin receptor type 4 (Homo sapiens, UniProt P31391); assay: Inhibition of human somatostatin receptor type 4 (n=5)
[2] = molecular target: T2, Somatostatin receptor type 2 (Homo sapiens, UniProt P30874); assay: Inhibition of human somatostatin receptor type 2
[3] = molecular target: T1, Somatostatin receptor type 4; assay: Inhibition of human somatostatin receptor type 4
[4] = molecular target: T2, Somatostatin receptor type 2; assay: Inhibition of human somatostatin receptor type 2 (n=6)

T1 sequence (P31391 whole entry): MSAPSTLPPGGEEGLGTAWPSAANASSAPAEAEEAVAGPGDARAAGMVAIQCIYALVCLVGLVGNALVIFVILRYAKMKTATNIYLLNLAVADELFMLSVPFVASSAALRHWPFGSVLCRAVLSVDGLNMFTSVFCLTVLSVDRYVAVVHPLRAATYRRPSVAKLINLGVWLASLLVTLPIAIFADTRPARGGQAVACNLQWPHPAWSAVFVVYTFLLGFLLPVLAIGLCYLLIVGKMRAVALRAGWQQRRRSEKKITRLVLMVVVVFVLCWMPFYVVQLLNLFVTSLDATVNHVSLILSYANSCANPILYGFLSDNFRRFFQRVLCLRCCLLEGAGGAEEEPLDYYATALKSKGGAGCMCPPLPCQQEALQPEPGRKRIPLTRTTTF
T2 sequence (P30874 whole entry): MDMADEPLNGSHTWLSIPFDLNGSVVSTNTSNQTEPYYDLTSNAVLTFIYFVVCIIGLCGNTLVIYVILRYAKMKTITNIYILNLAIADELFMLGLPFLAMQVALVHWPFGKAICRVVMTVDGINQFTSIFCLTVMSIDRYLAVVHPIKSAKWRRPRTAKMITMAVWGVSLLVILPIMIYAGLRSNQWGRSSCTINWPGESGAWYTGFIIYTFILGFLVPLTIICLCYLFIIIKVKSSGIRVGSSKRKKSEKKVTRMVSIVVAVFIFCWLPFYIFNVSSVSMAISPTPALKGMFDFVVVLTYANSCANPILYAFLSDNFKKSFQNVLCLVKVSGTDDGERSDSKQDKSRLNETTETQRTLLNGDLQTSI

SMILES | Ki [1] | Ki [2] | Ki [3] | Ki [4]
C[C@H](N)C(=O)NCC(=O)N[C@H]1CSSC[C@@H](C(=O)O)NC(=O)[C@H](CO)NC(=O)[C@H]([C@@H](C)O)NC(=O)[C@H](Cc2ccccc2)NC(=O)[C@H]([C@@H](C)O)NC(=O)[C@H](CCCCN)NC(=O)[C@@H](Cc2c[nH]c3ccccc23)NC(=O)[C@H](Cc2cnccn2)NC(=O)[C@H](Cc2ccccc2)NC(=O)[C@H](CC(N)=O)NC(=O)[C@H](CCCCN)NC1=O | – | > 1000 nM | 700 nM | –
C[C@H](N)C(=O)NCC(=O)N[C@H]1CSSC[C@@H](C(=O)O)NC(=O)[C@H](CO)NC(=O)[C@H]([C@@H](C)O)NC(=O)[C@H](Cc2cnccn2)NC(=O)[C@H]([C@@H](C)O)NC(=O)[C@H](CCCCN)NC(=O)[C@@H](Cc2c[nH]c3ccccc23)NC(=O)[C@H](Cc2ccccc2)NC(=O)[C@H](Cc2ccccc2)NC(=O)[C@H](CC(N)=O)NC(=O)[C@H](CCCCN)NC1=O | – | 1 nM | 124 nM | –
C[C@H](N)C(=O)NCC(=O)N[C@H]1CSSC[C@@H](C(N)=O)NC(=O)[C@H](CO)NC(=O)[C@H]([C@@H](C)O)NC(=O)[C@H](Cc2ccccc2)NC(=O)[C@H]([C@@H](C)O)NC(=O)[C@H](CCCCN)NC(=O)[C@H](Cc2c[nH]c3ccccc23)NC(=O)[C@H](Cc2ccccc2)NC(=O)[C@H](C)NC(=O)[C@H](CC(N)=O)NC(=O)[C@H](CCCCN)NC1=O (H-AGCKNAFWKTFTSC-NH2; disulfide 3-14) | – | – | 80 nM | –

Stronger by Ki [3], values ahead:

Ki [1] | Ki [2] | Ki [3] | Ki [4] | SMILES
77 nM | 1 nM | 60 nM | 7 nM | C[C@H](N)C(=O)NCC(=O)N[C@H]1CSSC[C@@H](C(=O)O)NC(=O)[C@H](CO)NC(=O)[C@H]([C@@H](C)O)NC(=O)[C@H](Cc2ccccc2)NC(=O)[C@H]([C@@H](C)O)NC(=O)[C@H](CCCCN)NC(=O)[C@@H](Cc2c[nH]c3ccccc23)NC(=O)[C@H](Cc2ccccc2)NC(=O)[C@H](Cc2cnccn2)NC(=O)[C@H](CC(N)=O)NC(=O)[C@H](CCCCN)NC1=O
– | – | < 1 nM | – | C[C@H](N)C(=O)NCC(=O)N[C@H]1CSSC[C@@H](C(N)=O)NC(=O)[C@H](CO)NC(=O)[C@H]([C@@H](C)O)NC(=O)[C@H](C)NC(=O)[C@H]([C@@H](C)O)NC(=O)[C@H](CCCCN)NC(=O)[C@H](Cc2c[nH]c3ccccc23)NC(=O)[C@H](Cc2ccccc2)NC(=O)[C@H](Cc2ccccc2)NC(=O)[C@H](CC(N)=O)NC(=O)[C@H](CCCCN)NC1=O (H-AGCKNFFWKTATSC-NH2; disulfide 3-14)
